In patent US20250134890A1, “ANTIMALARIAL HEXAHYDROPYRIMIDINE ANALOGUES” (UCB BIOPHARMA SRL, priority 2022, published 2025):
Counter-ions that a name gives are not always drawn.

system: Plasmodium falciparum: 3D7 strain; assay: P. falciparum 3D7 asexual blood stage assay (SYBR green readout); assay type: cell-based; settings: Plasmodium falciparum, 3D7, Erythrocyte, 72 h, P. falciparum 3D7 in human erythrocytes, 72 h incubation, SYBR green fluorescence
From the text: The compounds of the present invention are potent inhibitors of the growth and propagation of the Plasmodium falciparum parasite in human blood.
The assay used to measure the effect of test compounds on a bloodstream stage of Plasmodium falciparum: 3D7 strain employs SYBR green as the readout. This is a dye that binds to double stranded deoxyribonucleic acid (DNA) with a resulting increase in fluorescence, allowing detection of P. falciparum DNA in infected erythrocytes, and thereby providing a measure of parasite growth and propagation.
Erythrocytes (A+blood) were prepared for both parasite culture and assay by washing 4 times with incomplete media (15.9 g RPMI 1640 (25 mM HEPES, L-glutamine), 1 g NaHCO3, 2 g glucose, 400 μL gentacin (500 mg/mL), 2 mL hypoxanthine solution (13.6 g/L in 0.1M NaOH pH 7.3) in 1 litre of media). The cells were centrifuged at 1800 g for 5 minutes, before decanting the supernatant and re-suspending in fresh incomplete media. On the final wash, the cells were re-suspended in complete media (incomplete media with 5 g/L AlbumaxII), and centrifuged at 1800 g for 3 minutes. This cell sediment was treated as 100% haematocrit.
P. falciparum 3D7 was cultured in erythrocytes at 5% haematocrit in complete media at 37° C. (1% O2, 3% CO2, balance N2). Cultures were split on a weekly basis to achieve a 1% parasitaemia in erythrocites at 5% haematocrit in fresh media. Culture media is replaced by fresh media every other day (2 times during the week).
On day 1, test compounds were added to assay plates using Echo dispensing technology ([…] and 20 points titration). 50 nL of each compound dilution was added to 50 μL of culture (5% haematocrit, 0.5% parasitaemia) and incubated for 72 h at 37° C. (1% O2, 3% CO2, balance N2). Final concentrations of test compounds ranged from 50,000 nM to 15 nM, in […].
On day 4, 10 μL SYBR green (Invitrogen S7563 supplied as 10,000×concentrate in DMSO) pre-diluted to 3×concentrate with Lysis buffer (20 mM Tris pH 7.9, 5% EDTA, 0.16% w/v, 1.6% TX100 v/v) was added to the cultures and incubated in the dark, overnight, at room temperature.
On day 5, fluorescent signal was measured using a BioTek plate reader (excitation 485 nm, emission 528 nm). All data were processed using IDBS ActivityBase. Raw data were converted into percent inhibition through linear regression by setting the high inhibition control (mefloquine) as 100% and the no inhibition control (DMSO) as 0%. Quality control criteria for passing plates were as follows: Z′>0.5, S:B>3, % CV(no inhibition control)<15. The formula used to calculate Z′ is: […]
All EC50 curve fitting was undertaken using the following bi-phasic two site dose response using XLfit model 300 (IDBS):
where A=100 minus the top of the upper curve 1 and the bottom of lower curve; B=Hill slope; log(C)=IC50 concentration at lower site; log(D)=IC50 concentration at upper site; x=inhibitor concentration; and y=% inhibition.

`C[C@@H]1C[C@H](N2C(=N)N[C@](C)(c3cccc(-c4cccc(Cl)c4)c3Cl)CC2=O)CC[C@@H]1O` (relative stereo) [Example 7, (6S)-6-[2-Chloro-3-(3-chloro-phenyl)phenyl]-3-[(1R*,3R*,4S*)-4-hydroxy-3-methylcyclohexyl]-2-imino-6-methylhexahydro-pyrimidin-4-one hydrochloride] was tested. Which IC50 did it give?
Its IC50 is 720 nM.

For `C[C@H]1C[C@@H](N2C(=N)N[C@](C)(c3cccc(-c4cccc(Cl)c4)c3Cl)CC2=O)CC[C@H]1O` (relative stereo) [Example 8, (6S)-6-[2-Chloro-3-(3-chloro-phenyl)phenyl]-3-[(1S*,3S*,4R*)-4-hydroxy-3-methylcyclohexyl]-2-imino-6-methylhexahydro-pyrimidin-4-one hydrochloride], which IC50 is on record?
The IC50 was 247 nM.

`CO[C@@H]1C[C@H](N2C(=N)N[C@](C)(c3cccc(-c4ccc(S(C)(=O)=O)cc4F)c3Cl)CC2=O)CCC1(F)F` (relative stereo) [Example 9, (6S)-6-{2-Chloro-3-[2-fluoro-4-(methylsulfonyl)phenyl]phenyl}-3-[(1R*,3R*)-4,4-difluoro-3-methoxycyclohexyl]-2-imino-6-methylhexahydropyrimidin-4-one hydrochloride] was tested. Which IC50 did it give?
The IC50 was 84 nM.

For `CO[C@H]1C[C@@H](N2C(=N)N[C@](C)(c3cccc(-c4ccc(S(C)(=O)=O)cc4F)c3Cl)CC2=O)CCC1(F)F` (relative stereo) [Example 10, (6S)-6-{2-Chloro-3-[2-fluoro-4-(methylsulfonyl)phenyl]phenyl}-3-[(1S*,3S*)-4,4-difluoro-3-methoxy-cyclohexyl]-2-imino-6-methyl-hexahydropyrimidin-4-one hydrochloride], which IC50 is on record?
Its IC50 is 6 nM.

Which IC50 does the source give for `CO[C@@H]1C[C@H](N2C(=N)N[C@](C)(c3cccc(-c4ccc(N=S(C)(C)=O)cc4F)c3Cl)CC2=O)CCC1(F)F` (relative stereo) [Example 11, (6S)-6-[2-Chloro-3-(4-{[(dimethyl)-(oxo)-λ^6-sulfanylidene]amino}-2-fluorophenyl)phenyl]-3-[(1R*,3R*)-4,4-difluoro-3-methoxycyclohexyl]-2-imino-6-methylhexahydropyrimidin-4-one hydrochloride] here?
Its IC50 is 367 nM.

Which IC50 does the source give for `CO[C@H]1C[C@@H](N2C(=N)N[C@](C)(c3cccc(-c4ccc(N=S(C)(C)=O)cc4F)c3Cl)CC2=O)CCC1(F)F` (relative stereo) [Example 12, (6S)-6-[2-Chloro-3-(4-{[(dimethyl)-(oxo)-λ^6-sulfanylidene]amino}-2-fluorophenyl)phenyl]-3-[(1S*,3S*)-4,4-difluoro-3-methoxy-cyclohexyl]-2-imino-6-methyl-hexahydropyrimidin-4-one hydrochloride] here?
The IC50 was 359 nM.

`C[C@@]1(c2cccc(-c3cccc(Cl)c3)c2Cl)CC(=O)N([C@H]2CCC(F)(F)[C@@H](O)C2)C(=N)N1` (relative stereo) [Example 21, (S)-6-[2,3′-Dichloro(1,1′-biphenyl)-3-yl]-3-[(1S*,3S*)-4,4-difluoro-3-hydroxycyclohexyl]-2-imino-6-methyltetrahydropyrimidin-4(1H)-one trifluoroacetic acid salt] was tested. Which IC50 did it give?
The IC50 was 726 nM.

Which IC50 does the source give for `C[C@@]1(c2cccc(-c3cccc(Cl)c3)c2Cl)CC(=O)N([C@@H]2CCC(F)(F)[C@H](O)C2)C(=N)N1` (relative stereo) [Example 22, (S)-6-[2,3′-Dichloro(1,1′-biphenyl)-3-yl]-3-[(1R*,3R*)-4,4-difluoro-3-hydroxycyclohexyl]-2-imino-6-methyltetrahydropyrimidin-4(1H)-one trifluoroacetic acid salt] here?
The IC50 was 154 nM.

For `C[C@@]1(c2cccc(-c3cncc(Cl)c3)c2Cl)CC(=O)N([C@@H]2CCC(F)(F)[C@H](O)C2)C(=N)N1` (relative stereo) [Example 23, (6S)-6-[2-Chloro-3-(5-chloro-pyridin-3-yl)phenyl]-3-[(1R*,3R*)-4,4-difluoro-3-hydroxycyclohexyl]-2-imino-6-methylhexahydro-pyrimidin-4-one hydrochloride], which IC50 is on record?
The IC50 was 158 nM.

With `C[C@@]1(c2cccc(-c3cccc(Cl)c3)c2Cl)CC(=O)N([C@@H]2CCC(F)(F)[C@@H](O)C2)C(=N)N1` (relative stereo) [Example 24, (6S)-6-[2-Chloro-3-(3-chloro-phenyl)phenyl]-3-[(1R*,3S*)-4,4-difluoro-3-hydroxycyclohexyl]-2-imino-6-methylhexahydro-pyrimidin-4-one trifluoroacetic acid salt] as the compound, how does the IC50 read?
The IC50 was 112 nM.

How did the IC50 turn out when `C[C@@H]1C[C@H](N2C(=N)N[C@](C)(c3cccc(-c4ccc(F)cc4F)c3Cl)CC2=O)CCS1(=O)=O` (relative stereo) [Example 63, (6S)-6-[2-Chloro-3-(2,4-difluoro-phenyl)phenyl]-2-imino-6-methyl-3-[(2R*,4R*)-2-methyl-1,1-dioxo-thian-4-yl]hexahydropyrimidin-4-one hydrochloride] was run?
Its IC50 is 74 nM.

With `C[C@H]1C[C@@H](N2C(=N)N[C@](C)(c3cccc(-c4ccc(F)cc4F)c3Cl)CC2=O)CCS1(=O)=O` (relative stereo) [Example 64, (6S)-6-[2-Chloro-3-(2,4-difluoro-phenyl)phenyl]-2-imino-6-methyl-3-[(2S*,4S*)-2-methyl-1,1-dioxo-thian-4-yl]hexahydropyrimidin-4-one hydrochloride] as the compound, how does the IC50 read?
Its IC50 is 207 nM.

With `C[C@H]1C[C@H](N2C(=N)N[C@](C)(c3cccc(-c4ccc(F)cc4F)c3Cl)CC2=O)CCS1(=O)=O` (relative stereo) [Example 65, (6S)-6-[2-Chloro-3-(2,4-difluoro-phenyl)phenyl]-2-imino-6-methyl-3-[(2S*,4R*)-2-methyl-1,1-dioxo-thian-4-yl]hexahydropyrimidin-4-one hydrochloride] as the compound, how does the IC50 read?
Its IC50 is 1300 nM.

With `C[C@@H]1C[C@@H](N2C(=N)N[C@](C)(c3cccc(-c4ccc(F)cc4F)c3Cl)CC2=O)CCS1(=O)=O` (relative stereo) [Example 66, (6S)-6-[2-Chloro-3-(2,4-difluoro-phenyl)phenyl]-2-imino-6-methyl-3-[(2R*,4S*)-2-methyl-1,1-dioxo-thian-4-yl]hexahydropyrimidin-4-one hydrochloride] as the compound, how does the IC50 read?
The IC50 was 272 nM.

With `C[C@H]1C[C@@H](N2C(=N)N[C@](C)(c3cccc(-c4ccc(C5CC5)nc4)c3Cl)CC2=O)CCS1(=O)=O` (relative stereo) [Example 67, (6S)-6-[2-Chloro-3-(6-cyclopropyl-pyridin-3-yl)phenyl]-2-imino-6-methyl-3-[(2S*,4S*)-2-methyl-1,1-dioxothian-4-yl]hexahydro-pyrimidin-4-one hydrochloride] as the compound, how does the IC50 read?
Its IC50 is 88 nM.

`C[C@@H]1C[C@@H](N2C(=N)N[C@](C)(c3cccc(-c4ccc(C5CC5)nc4)c3Cl)CC2=O)CCS1(=O)=O` (relative stereo) [Example 68, (6S)-6-[2-Chloro-3-(6-cyclopropyl-pyridin-3-yl)phenyl]-2-imino-6-methyl-3-[(2R*,4S*)-2-methyl-1,1-dioxothian-4-yl]hexahydro-pyrimidin-4-one hydrochloride] was tested. Which IC50 did it give?
Its IC50 is 1140 nM.

Which IC50 does the source give for `C[C@H]1C[C@H](N2C(=N)N[C@](C)(c3cccc(-c4ccc(C5CC5)nc4)c3Cl)CC2=O)CCS1(=O)=O` (relative stereo) [Example 69, (6S)-6-[2-Chloro-3-(6-cyclopropyl-pyridin-3-yl)phenyl]-2-imino-6-methyl-3-[(2S*,4R*)-2-methyl-1,1-dioxothian-4-yl]hexahydro-pyrimidin-4-one hydrochloride] here?
Its IC50 is 260 nM.

For `C[C@@H]1C[C@H](N2C(=N)N[C@](C)(c3cccc(-c4ccc(OC(F)F)nc4)c3Cl)CC2=O)CCS1(=O)=O` (relative stereo) [Example 70, (6S)-6-{2-Chloro-3-[6-(difluoro-methoxy)pyridin-3-yl]phenyl}-2-imino-6-methyl-3-[(2R*,4R*)-2-methyl-1,1-dioxothian-4-yl]-hexahydropyrimidin-4-one hydrochloride], which IC50 is on record?
The IC50 was 85 nM.

same assay, conditions: Plasmodium falciparum, Erythrocyte; P. falciparum 3D7 in human erythrocytes, 72 h incubation, SYBR green fluorescence; read-out: IC50

How did the IC50 turn out when `C[C@H]1C[C@@H](N2C(=N)N[C@](C)(c3cccc(-c4cccc([C@@H](O)C(F)(F)F)c4)c3Cl)CC2=O)CCO1` (relative stereo) [Example 27, (6S)-6-(2-Chloro-3-{3-[(1R*)-2,2,2-trifluoro-1-hydroxyethyl]-phenyl}phenyl)-2-imino-6-methyl-3-[(2S,4S)-2-methyltetrahydro-pyran-4-yl|hexahydropyrimidin-4-one hydrochloride] was run?
Its IC50 is 44 nM.
